In brackets after ≈: the same amount, converted by molar mass.
System: antibody derived from Immunogen of Example 9
Assay: Competitive immunoassay (ELISA), IC50 derivation and cross-reactivity
Format: binding, sheep
Settings: for % CROSS-REACTIVITY: compared to 100% for AKB48; for % CROSS-REACTIVITY / IC50: Tracer 1 of Example 10; for IC50: Table 2, generated as per AKB48 and Table 1; for binding to the antibodies of the invention: "does not bind" = cross-reactivity of less than 2% vs 100% for AKB48 under Example 12 conditions
Procedure: All cross-reactivity are measured herein under the experimental conditions of Example 12 and compared to 100% for AKB48.
IgG is extracted from the antisera and immobilised on a 96 well ELISA plate (coated for 2 hours at +37° C. at 10 ug/ml in a Phosphate Buffered Saline pH7.2). Unbound material is removed by washing with Tris Buffered Saline (TBS) containing tween ([…]) over 10 minutes. Standard AKB48 is added at the concentrations quoted in Table 1, followed by detection agent 1 (FIG. 2) at 1/140 k in a dilution buffer. After incubation (60 mins) at +15 to +25° C. to allow a competition reaction to take place, the microtitre plate is washed with TBS containing Tween™ to remove excess reagents. The enzyme substrate […] (125 μl) is added (Kem-en-Tec Cat. No. 4800). After a 20 minute incubation period to allow maximum colour development, the colour reaction is stopped by the addition of sulphuric acid (0.2M, 120 μl). This produces a colour change from blue to yellow, and the absorbances are read at 450 nm. A standard curve is then constructed and the IC50 calculated as the AKB48 concentration which produces 50% inhibition of maximal signal. This process was repeated for synthetic cannabinoid members as stated in Table 2 to assess cross-reactivity.
The cross-reactivity (CR) was calculated using the equation below. All calculations were based upon binding and displacement at the 50% of maximum OD (optical density) binding point. The maximum OD is the signal generated using tracer alone and 50% displacement (inhibition) corresponds to the IC50. […]
The extent of antibody binding to synthetic cannabinoids of various families was assessed (Table 2). For the cross-reactants with IC50 values, standard curves were derived for each analyte (as per AKB48 and Table 1). […] In all cases, the cross-reactivity set out in Table 2 was measured using an antibody derived from the immunogen of Example 9 and Tracer 1 of Example 10.

[1] = single cross-reactant at 300 ng/ml
[2] = standard curve derived for each analyte

Compound | % CROSS-REACTIVITY [1] | binding to the antibodies of the invention | further results
O=C(O)c1cn(CC2CCCCC2)c2ccccc12 [3-Carboxyindole metabolite of BB-22] | <1.00% |  | 
CCCCCn1nc(C(=O)NC23CC4CC(CC(O)(C4)C2)C3)c2ccccc21 [3-OH-AKB48, (3-hydroxy-1-adamantyl) 1-pentylindazole-3-carboxamide] |  |  | IC50: 0.18 ng/mL (≈ 0.000472 µM); % CROSS-REACTIVITY [2]: 1163.53%
CCCCCn1cc(C(=O)NC23CC4CC(CC(O)(C4)C2)C3)c2ccccc21 [3-OH-SDB001] |  |  | IC50: 4.40 ng/mL (≈ 0.0116 µM); % CROSS-REACTIVITY [2]: 47.30%
O=C(O)c1cn(CCCCCF)c2ccccc12 [3-carboxyindole of 5-fluoro PB-22] | <1.00% |  | 
O=C(Oc1cccc2cccnc12)c1cn(CCCCCF)c2ccccc12 [5-fluoro PB-22] | <1.00% |  | 
CC1(C)C(C(=O)c2cn(CC3CCOCC3)c3ccccc23)C1(C)C [A-834735] | <1.00% |  | 
CC1(C)C(C(=O)c2cn(CCN3CCOCC3)c3ccccc23)C1(C)C [A-7969260] | <1.00% |  | 
O=C(O)CCCCn1cc(C(=O)C23CC4CC(CC(C4)C2)C3)c2ccccc21 [AB001 N-Pentanoic Acid] | <1.00% | do not bind | 
O=C(c1cn(CCCCCO)c2ccccc12)C12CC3CC(CC(C3)C1)C2 [AB001 N-Pentanol] | <1.00% | do not bind | 
CCCCCn1nc(C(=O)N[C@H](C(N)=O)C(C)C)c2ccccc21 [AB Pinaca] | <1.00% | does not bind | 
O=C(NC12CC3CC(CC(C3)C1)C2)c1nn(CCCCCF)c2ccccc12 [AKB48 N-(5-fluoropentyl)] |  |  | IC50: 2.10 ng/mL (≈ 0.00548 µM); % CROSS-REACTIVITY [2]: 98.90%
O=C(O)CCCCn1nc(C(=O)NC23CC4CC(CC(C4)C2)C3)c2ccccc21 [AKB48 N-Pentanoic acid (LK1461)] | <1.00% | do not bind | 
CCCCCn1cc(C(=O)NC23CC4CC(CC(C4)C2)C3)c2ccccc21 [AKB48, N-(1-adamantyl)-1-pentyl-1H-indole-3-carboxamide] |  |  | % B/B0 (AKB48 concentration 0.25 ng/ml): 88%; % B/B0 (AKB48 concentration 0.74 ng/ml): 69%; % B/B0 (AKB48 concentration 2.22 ng/ml): 50%; % B/B0 (AKB48 concentration 6.67 ng/ml): 26%; % B/B0 (AKB48 concentration 20.00 ng/ml): 12%; IC50: 2.08 ng/mL (≈ 0.00571 µM); % CROSS-REACTIVITY [2]: 100.00%
N#CCCCCn1cc(C(=O)c2cccc3ccccc23)c2ccccc21 [AM2232] | <1.00% |  | 
O=C(c1ccccc1I)c1cn(CCCCCF)c2ccccc12 [AM-694] | <1.00% | does not bind | 
CN1CCCCC1Cn1cc(C(=O)C23CC4CC(CC(C4)C2)C3)c2ccccc21 (stereo not drawn) [AM-1248] | <1.00% | does not bind | 
O=C(c1cccc2ccccc12)c1cn(CCCCCF)c2cc(O)ccc12 [AM-2201 6-Hydroxyindole] | <1.00% |  | 
O=C(c1cccc2ccccc12)c1cn(CCCC(O)CF)c2ccccc12 (stereo not drawn) [AM-2201 N-(4-Hydroxypentyl)] | <1.00% |  | 
O=C(c1cccc2ccccc12)c1cn(CCCCCF)c2ccccc12 [AM-2201] | <1.00% |  | 
O=C(Oc1cccc2cccnc12)c1cn(CC2CCCCC2)c2ccccc12 [BB-22] | <1.00% |  | 
CCCCCn1c(C)c(C(=O)c2cccc3ccccc23)c2ccccc21 [JWH-007] | <1.00% |  | 
CCCn1c(C)c(C(=O)c2cccc3ccccc23)c2ccccc21 [JWH-015] | <1.00% |  | 
CCCCCn1cc(C(=O)c2cccc3ccccc23)c2c(O)cccc21 [JWH-018 4-Hydroxyindole] | <1.00% |  | 
CCCCCn1cc(C(=O)c2cccc3ccccc23)c2cc(O)ccc21 [JWH-018 5-Hydroxyindole] | <1.00% |  | 
CCCCCn1cc(C(=O)c2cccc3ccccc23)c2ccc(O)cc21 [JWH-018 6-Hydroxyindole] | <1.00% |  | 
O=C(c1cccc2ccccc12)c1cn(CCCCCO)c2ccccc12 [JWH-018 N-(5-Hydroxypentyl)] | <1.00% |  | 

Compound | % CROSS-REACTIVITY [1] | binding to the antibodies of the invention | further results
O=C(O)CCCCn1cc(C(=O)c2cccc3ccccc23)c2ccccc21 [JWH-018 N-Pentanoic acid] | <1.00% |  | 
CCCCCn1cc(C(=O)c2cccc3ccccc23)c2ccccc21 [JWH-018] | <1.00% | do not bind | 
CCCCCCn1cc(C(=O)c2cccc3ccccc23)c2ccccc21 [JWH-019] | <1.00% |  | 
C=CCCCn1cc(C(=O)c2cccc3ccccc23)c2ccccc21 [JWH-022] | <1.00% |  | 
CCCCn1cc(C(=O)c2cccc3ccccc23)c2c(O)cccc21 [JWH-073 4-Hydroxyindole] | <1.00% |  | 
CCCCn1cc(C(=O)c2cccc3ccccc23)c2cc(O)ccc21 [JWH-073 5-Hydroxyindole] | <1.00% |  | 
CCCCn1cc(C(=O)c2cccc3ccccc23)c2ccccc21 [JWH-073] | <1.00% | do not bind | 
CCCCCn1cc(C(=O)c2ccc(OC)c3ccccc23)c2ccccc21 [JWH-081] | <1.00% |  | 
O=C(c1cccc2ccccc12)c1cn(CCN2CCOCC2)c2ccccc12 [JWH-200] | <1.00% | do not bind | 
CCCCCn1cc(C(=O)Cc2ccccc2Cl)c2ccccc21 [JWH-203] | <1.00% | does not bind | 
CCCCCn1cc(C(=O)c2ccc(CC)c3ccccc23)c2ccccc21 [JWH-210] | <1.00% |  | 
COc1ccccc1CC(=O)c1cn(CCCCCC(=O)O)c2ccccc12 [JWH-250 N-(5-Carboxypentyl)] | <1.00% | do not bind | 
COc1ccccc1CC(=O)c1cn(CCCCCO)c2ccccc12 [JWH-250 N-(5-Hydroxypentyl)] | <1.00% | do not bind | 
CCCCCn1cc(C(=O)c2ccc(Cl)c3ccccc23)c2ccccc21 [JWH-398] | <1.00% |  | 
O=C(c1c[nH]c2ccccc12)C12CC3CC(CC(C3)C1)C2 [N-Desalkyl AB001] | <1.00% |  | 
CCCCCn1cc(C(=O)O)c2ccccc21 [PB-22 3-Carboxyindole metabolite] | <1.00% |  | 
CCCCCn1cc(C(=O)Oc2cccc3cccnc23)c2ccccc21 [PB-22] | <1.00% | does not bind | 
CCCCCn1cc(C(=O)c2ccc(OC)cc2)c2ccccc21 [RCS-4] |  | does not bind | IC50: 124.55 ng/mL (≈ 0.387 µM); % CROSS-REACTIVITY [2]: 1.67%
COc1ccccc1CC(=O)c1cn(CCC2CCCCC2)c2ccccc12 [RCS-8] | <1.00% | does not bind | 
CCCCCn1cc(C(=O)NC23CC4CC(CC(C4)C2)C3)c2ccccc21 [SDB001] |  |  | IC50: 52.00 ng/mL (≈ 0.143 µM); % CROSS-REACTIVITY [2]: 4.07%
O=C(O)CCCCn1cc(C(=O)NC23CC4CC(CC(C4)C2)C3)c2ccccc21 [SDB-001 N-Pentanoic acid (LK1404)] | <1.00% | do not bind | 
O=C(NC12CC3CC(CC(C3)C1)C2)c1cn(CCCCCF)c2ccccc12 [STS135] |  |  | IC50: 24.76 ng/mL (≈ 0.0647 µM); % CROSS-REACTIVITY [2]: 8.41%
CC1(C)C(C(=O)c2cn(CCCCC(=O)O)c3ccccc23)C1(C)C [UR-144 N Pentanoic acid] | <1.00% |  | 
CCCCCn1cc(C(=O)C2C(C)(C)C2(C)C)c2ccccc21 [UR-144] | <1.00% | do not bind | 
CC1(C)C(C(=O)c2cn(CCCCCF)c3ccccc23)C1(C)C [XLR-11] | <1.00% | do not bind | 
